Results reported in patent publication US20100298252A1, “METHODS AND COMPOSITIONS FOR OPHTHALMIC TREATMENT OF FUNGAL AND BACTERIAL INFECTIONS” (priority 2004, published 2010).
In brackets after ≈: the same amount, converted by molar mass. Several values for one entry are separate records, joined by “and”; a condition that tells them apart may be missing. Equal entries are not always repeated.

How the values were obtained:
Enterococcus faecalis [1] = assay: Antibiotic resistance profile by disc diffusion; format: cell-based; design: key: R = resistant; I = intermediate; S = sensitive; conditions: disc diffusion on MHA
Procedure: (§1) The organisms of this study were isolated from human burn patients. They included strains of methicillin resistant Staphylococcus aureus, and vancomycin resistant strains of Pseudomonas aeruginosa and Enterococcus faecalis. The bacterial isolates were propagated in or on Brain Heart Infusion broth (BHI), Mueller-Hinton Broth (MHB), blood agar (BA), Mueller-Hinton agar (MHA), enterococcus agar (EA), or 2× nutrient agar (2×NA).
(§2) Antibiotic resistance profiles were determined by the disc diffusion method on MHA (5).

Pseudomonas aeruginosa [2] = assay: Antibiotic resistance profile by disc diffusion; format: cell-based; design: key: R = resistant; I = intermediate; S = sensitive; conditions: disc diffusion on MHA
Procedure: as §1, §2

Staphylococcus aureus [3] = assay: Antibiotic resistance profile by disc diffusion; format: cell-based; design: key: R = resistant; I = intermediate; S = sensitive; conditions: disc diffusion on MHA
Procedure: as §1, §2

Enterococcus faecalis [4] = assay: MIC and FIC index, microtiter checkerboard / broth dilution; format: cell-based; conditions: Ent. faecalis
Procedure: (§3) Agents and Chem. 210-217. (1967) and Sparks et al., Vet. Res. Comm. 18, 241-249 (1994), incorporated herein by reference in their entireties. […] Then 0.05 ml of an 18-hour old culture of a test organism, containing 10^6 colony-forming units (CFU)/ml, was added to each well. Controls for the culture and media were included in each plate. Plates were covered and incubated at 37° Celsius for 18-24 hours. […] To generate isobolograms, FICs of the two test solutions were plotted individually on the x-axis and y-axis to determine the effect of combining the two test solutions on bacterial growth. A line that curves away from, the zero point and the coordinates indicates antagonism. […] A numerical score or fractional inhibitory concentration (FIC) index was determined. The FIC index is equal to the sum of the values of FIC for the individual drugs: […] Am. Soc. Microbiol. Williams and Wilkins, Baltimore 1970), incorporated herein by reference in its entirety. […] Ps. aeruginosa, and Ent. faecalis.

Pseudomonas aeruginosa [5] = assay: as above; format: cell-based; conditions: Ps. aeruginosa
Procedure: as §3

Staphylococcus aureus [6] = assay: as above; format: cell-based; conditions: Staph. aureus
Procedure: as §3

Enterococcus faecalis [7] = assay: Minimal Bactericidal Concentration, broth-dilution microtiter; format: cell-based
Source text: (§4) 307 (pub: Am. Soc. Microbiol. Williams and Wilkins, Baltimore 1970), incorporated herein by reference in its entirety.

Pseudomonas aeruginosa [8] = assay: as above; format: cell-based; conditions: Ps. aeruginosa
Source text: as §4

Staphylococcus aureus [9] = assay: as above; format: cell-based; conditions: Staph. aureus
Source text: as §4

[10] = system: Candidia albicans ATCC 90028; assay: Antifungal MIC 50 / MIC 90 alone and combined with Tricide; format: cell-based, Candida albicans;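 also: MIC 50 and MIC 90 values are means, and the percent decrease is the drop in MIC when the antifungal is combined with Tricide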
[11] = system: Paecilomyces variotti ATCC 36257; assay: as above; format: cell-based
Aspergillus sp. = assay: as above; format: cell-based
Fusarium sp. 1 = assay: microbe, parasite or virus in culture; format: cell-based
Fusarium sp. 2 = assay: microbe, parasite or virus in culture; format: cell-based
Fusarium sp. 3 = assay: microbe, parasite or virus in culture; format: cell-based
Penicillium sp. = assay: Antifungal MIC 50 / MIC 90 alone and combined with Tricide; format: cell-based
Cladosporium sp. = assay: as above; format: cell-based
Curvularia sp. = assay: as above; format: cell-based
[12] = neomycin co-administered with EDTA, 50 mM Tris
[13] = Candida albicans, ATCC90028, Candidia albicans ATCC 90028, antifungal alone
[14] = Paecilomyces variotti ATCC36257
[15] = Paecilomyces variotti, Tricide […]
[16] = Aspergillus sp., Tricide 200 ug/ml
[17] = Aspergillus, Aspergiullus sp., antifungal alone
[18] = Fusarium sp. 1, Tricide 540 ug/ml
[19] = Fusarium sp. 1, antifungal alone
[20] = Curvilaria sp., Tricide 200 ug/ml
[21] = Curvularia sp., antifungal alone

## CN[C@H](CC(C)C)C(=O)N[C@H]1C(=O)N[C@@H](CC(N)=O)C(=O)N[C@H]2C(=O)N[C@H]3C(=O)N[C@H](C(=O)N[C@H](C(=O)O)c4cc(O)cc(O)c4-c4cc3ccc4O)[C@H](O)c3ccc(c(Cl)c3)Oc3cc2cc(c3O[C@@H]2O[C@H](CO)[C@@H](O)[C@H](O)[C@H]2O[C@H]2C[C@](C)(N)[C@H](O)[C@H](C)O2)Oc2ccc(cc2Cl)[C@H]1O [Va, vancomycin]
Enterococcus faecalis [1]
  Antibiotic resistance profile: R
Pseudomonas aeruginosa [2]
  Antibiotic resistance profile: R
Staphylococcus aureus [3]
  Antibiotic resistance profile: S

## Cc1noc(NS(=O)(=O)c2ccc(N)cc2)c1C [G, sulfisoxazole]
Enterococcus faecalis [1]
  Antibiotic resistance profile: R
Pseudomonas aeruginosa [2]
  Antibiotic resistance profile: R
Staphylococcus aureus [3]
  Antibiotic resistance profile: S

## CCn1cc(C(=O)O)c(=O)c2ccc(C)nc21 [NA, nalidixic acid]
Enterococcus faecalis [1]
  Antibiotic resistance profile: R
Pseudomonas aeruginosa [2]
  Antibiotic resistance profile: R
Staphylococcus aureus [3]
  Antibiotic resistance profile: R

## [H]/N=C(/N)N[C@H]1[C@H](O)[C@@H](O)[C@H](O[C@@H]2O[C@@H](C)[C@](O)(C=O)[C@H]2O[C@@H]2O[C@@H](CO)[C@H](O)[C@@H](O)[C@@H]2NC)[C@@H](N/C(N)=N\[H])[C@@H]1O [S, streptomycin]
Enterococcus faecalis [1]
  Antibiotic resistance profile: R
Pseudomonas aeruginosa [2]
  Antibiotic resistance profile: R
Staphylococcus aureus [3]
  Antibiotic resistance profile: S

## neomycin
Enterococcus faecalis [1]
  Antibiotic resistance profile: R
Pseudomonas aeruginosa [2]
  Antibiotic resistance profile: R
Staphylococcus aureus [3]
  Antibiotic resistance profile: R
Enterococcus faecalis [4]; antibiotic alone
  MIC Individually Administered, antibiotic: 3130 µg/mL
Pseudomonas aeruginosa [5]; antibiotic alone
  MIC Individually Administered, antibiotic: 1000 µg/mL
Staphylococcus aureus [6]; antibiotic alone
  MIC Individually Administered, antibiotic: 3130 µg/mL
Enterococcus faecalis [7]; En. faecalis, neomycin alone, 50 mM Tris
  MBC Individually Administered: 25000 µg/mL
Enterococcus faecalis [7]; En. faecalis, neomycin co-administered with EDTA, 50 mM Tris
  MBC Co-administered: 6250 µg/mL
Enterococcus faecalis [7]; Ent. faecalis
  Decrease of MBC value when EDTA and neomycin combined vs individually administered: 75%
Pseudomonas aeruginosa [8]
  Decrease of MBC value when EDTA and neomycin combined vs individually administered: 99.2%
Pseudomonas aeruginosa [8]; neomycin alone, 50 mM Tris
  MBC Individually Administered: 5000 µg/mL
Pseudomonas aeruginosa [8]; [12]
  MBC Co-administered: 40 µg/mL
Staphylococcus aureus [9]
  Decrease of MBC value when EDTA and neomycin combined vs individually administered: about 50% and 50%
Staphylococcus aureus [9]; neomycin alone, 50 mM Tris
  MBC Individually Administered: 3130 µg/mL
Staphylococcus aureus [9]; [12]
  MBC Co-administered: 1560 µg/mL

## O=C(O)CN(CCN(CC(=O)O)CC(=O)O)CC(=O)O [EDTA, ethylenediamenetetracetic acid]
Enterococcus faecalis [4]; EDTA alone in 50 mM Tris
  MIC Individually Administered, EDTA: 15630 µM
Pseudomonas aeruginosa [5]; EDTA alone in 50 mM Tris
  MIC Individually Administered, EDTA: 1250 µM
Staphylococcus aureus [6]; EDTA alone in 50 mM Tris
  MIC Individually Administered, EDTA: 1000 µM

## CC(=O)N1CCN(c2ccc(OCC3COC(Cn4ccnc4)(c4ccc(Cl)cc4Cl)O3)cc2)CC1 (stereo not shown) [Ketoconazole, ketoconazole]
[10]; [13]
  MIC50: 0.0313 µg/mL
  MIC90: > 1 µg/mL
[10]; Candida albicans, Tricide […]
  % decrease MIC 50: 100%
  % decrease MIC 90: 100%
  MIC 50 combined with Tricide: 0 µg/mL
[10]; Candidia albicans ATCC 90028
  Summary % reduction in MIC 50 using Tricide: 100%
  Summary % reduction in MIC 90 using Tricide: 100%
[11]; [14]
  Summary % reduction in MIC 50 using Tricide: 100%
  Summary % reduction in MIC 90 using Tricide: 75%
[11]; [15]
  % decrease MIC 50: 100%
  % decrease MIC 90: 75%
  MIC 50 combined with Tricide: 0 µg/mL
  MIC 90 combined with Tricide: 0.25 µg/mL
[11]; Paecilomyces, ATCC36257
  MIC50: 0.0382 µg/mL
  MIC90: 1 µg/mL
Aspergillus sp.; [16]
  % decrease MIC 50: 87.5%
  % decrease MIC 90: 95.8%
  MIC 50 combined with Tricide: 0.25 µg/mL
  MIC 90 combined with Tricide: 0.5 µg/mL
Aspergillus sp.; [17]
  MIC50: 2 µg/mL
  MIC90: 12 µg/mL
Aspergillus sp.; Aspergiullus sp.
  Summary % reduction in MIC 50 using Tricide: 87.5%
  Summary % reduction in MIC 90 using Tricide: 95.8%
Fusarium sp. 1; Fasarium sp. 1
  Summary % reduction in MIC 50 using Tricide: >99.9%-100%
  Summary % reduction in MIC 90 using Tricide: 99.9%-100%
Fusarium sp. 1; [18]
  % decrease MIC 50: >99.9-100% ^
  % decrease MIC 90: 99.9-100%^
  MIC 90 combined with Tricide: 0 to 0.05 µg/mL
Fusarium sp. 1; [19]
  MIC50: > 128 µg/mL
  MIC90: > 128 µg/mL
Fusarium sp. 2
  Summary % reduction in MIC 50 using Tricide: >99.5%-100%
  Summary % reduction in MIC 90 using Tricide: 99.9%-100%
Fusarium sp. 2; Tricide 540 ug/ml
  % decrease MIC 50: >99.5-100% ^
  % decrease MIC 90: >99.9-100% ^
Fusarium sp. 2; antifungal alone
  MIC50: 11.2 µg/mL (≈ 21.1 µM)
  MIC90: 64 µg/mL (≈ 120 µM)
Fusarium sp. 3
  Summary % reduction in MIC 50 using Tricide: 100%
  Summary % reduction in MIC 90 using Tricide: 100%
Fusarium sp. 3; Tricide 540 ug/ml
  % decrease MIC 50: 100%
  % decrease MIC 90: 100%
  MIC 50 combined with Tricide: 0 µg/mL
  MIC 90 combined with Tricide: 0 µg/mL
Fusarium sp. 3; antifungal alone
  MIC50: > 128 µg/mL
  MIC90: > 128 µg/mL
Penicillium sp.
  Summary % reduction in MIC 50 using Tricide: 100%
  Summary % reduction in MIC 90 using Tricide: 100%
Penicillium sp.; Tricide 200 ug/ml
  % decrease MIC 50: 100%
  % decrease MIC 90: 100%
  MIC 50 combined with Tricide: 0 µg/mL
  MIC 90 combined with Tricide: 0 µg/mL
Penicillium sp.; antifungal alone
  MIC50: 0.181 µg/mL
  MIC90: 0.5 µg/mL
Cladosporium sp.
  Summary % reduction in MIC 50 using Tricide: 75%
  Summary % reduction in MIC 90 using Tricide: 94%
Cladosporium sp.; Tricide 200 ug/ml
  % decrease MIC 50: >75%
  % decrease MIC 90: 94%
  MIC 90 combined with Tricide: 0.125 µg/mL
Cladosporium sp.; antifungal alone
  MIC50: 0.5 µg/mL
  MIC90: 2 µg/mL
Curvularia sp.; [20]
  % decrease MIC 50: 96.3-100%^
  % decrease MIC 90: 74-100% ^
  MIC 50 combined with Tricide: 0 to 0.0250 µg/mL
  MIC 90 combined with Tricide: 0 to 0.4 µg/mL
Curvularia sp.; Curvularia sp.
  Summary % reduction in MIC 50 using Tricide: 96.3%-100%
  Summary % reduction in MIC 90 using Tricide: 74%-100%
Curvularia sp.; [21]
  MIC50: 0.667 µg/mL
  MIC90: 1.56 µg/mL
